Data published in patent US20260042774A1, “CAMPTOTHECIN-7-ETHYLAMINE DERIVATIVE, PREPARATION METHOD THEREFOR, AND USE THEREOF” (HANGZHOU ADCORIS BIOPHARMA CO., LTD, priority 2022, published 2026).
Read-outs that look alike come from different tables or passages of the source.

Columns and labels:
Format in all cases: cell-based
[1] = system: Human esophageal cancer cells OE33; experiment: Tumor cell growth inhibitory activity (CCK-8), OE33
Procedure: (§1) Human esophageal cancer cells OE33 (human breast adenocarcinoma cells SK-BR-3, or human gastric cancer cells NCI-N87) was cultured in RPMI1640 (Cellmax) supplemented with 10% fetal bovine serum (Cellmax). Cells in the exponential growth phase were diluted to a concentration of 1×10^5 cells/mL by culture medium and added to 96-well cell culture plates at 100 μL per well, then returned back and incubated overnight in a 37° C. incubator with 5% CO2. On the following day, the compounds were diluted to concentrations of 10000 nM, 2000 nM, 400 nM, 80 nM, 16 nM, 3.2 nM, 0.64 nM, and 0.13 nM by culture medium and the diluted compounds were added to the 96-well cell culture plates at 2 μL per well, with three replicate wells for each concentration. Negative control and blank control groups without addition of compounds were added with 2 μL of the dilution liquid per well. After the addition of the compounds, the plates were returned back to the 37° C. incubator with 5% CO2 to continue the incubation for 72 h. After the incubation, the cell culture plates were removed, and the culture medium was aspirated using a pipette. Then, 100 μL of culture medium containing 10% CCK-8 was added to each well, and the plates were incubated at 37° C. for 3 h. After the incubation, the plates were removed, kept in the dark, and placed in an ELISA plate. Absorbance was measured at 630 nm as the reference wavelength and 450 nm as the test wavelength. The IC50 values (Table 2) were calculated using the four-parameter logistic regression method in GraphPad.

[2] = system: human breast adenocarcinoma cells SK-BR-3; experiment: Tumor cell growth inhibitory activity (CCK-8), SK-BR-3
Procedure: as §1

[3] = system: human gastric cancer cells NCI-N87; experiment: Tumor cell growth inhibitory activity (CCK-8), NCI-N87
Procedure: as §1

NCI-H1975 = experiment: Tumor cell growth inhibitory activity, NCI-H1975
MDA-MB-231 = experiment: Tumor cell growth inhibitory activity, MDA-MB-231
[4] = Homo sapiens, OE33 cells, 72 h incubation, CCK-8, read-out: IC50 (nM) for inhibiting the growth of tumor cells, OE33
[5] = Homo sapiens, SK-BR-3 cells, 72 h incubation, CCK-8, read-out: IC50 (nM) for inhibiting the growth of tumor cells, SK-BR-3
[6] = Homo sapiens, NCI-N87 cells, 72 h incubation, CCK-8, read-out: IC50 (nM) for inhibiting the growth of tumor cells, NCI-N87
[7] = Homo sapiens, NCI-H1975 cells, read-out: IC50 (nM) for inhibiting the growth of tumor cells, NCI-H1975
[8] = Homo sapiens, MDA-MB-231 cells, read-out: IC50 (nM) for inhibiting the growth of tumor cells, MDA-MB-231
[9] = Homo sapiens, OE33, 72 h, read-out: IC50 (nM) for inhibiting the growth of tumor cells, OE33, OE33 cells, 72 h incubation, CCK-8
[10] = Homo sapiens, SK-BR-3, 72 h, read-out: IC50 (nM) for inhibiting the growth of tumor cells, SK-BR-3, SK-BR-3 cells, 72 h incubation, CCK-8
[11] = Homo sapiens, NCI-N87, 72 h, read-out: IC50 (nM) for inhibiting the growth of tumor cells, NCI-N87, NCI-N87 cells, 72 h incubation, CCK-8
[12] = Homo sapiens, NCI-H1975, read-out: IC50 (nM) for inhibiting the growth of tumor cells, NCI-H1975, NCI-H1975 cells
[13] = Homo sapiens, MDA-MB-231, read-out: IC50 (nM) for inhibiting the growth of tumor cells, MDA-MB-231, MDA-MB-231 cells
[14] = read-out: IC50 (nM) for inhibiting the growth of tumor cells, OE33, OE33 cells, 72 h incubation, CCK-8
[15] = read-out: IC50 (nM) for inhibiting the growth of tumor cells, SK-BR-3, SK-BR-3 cells, 72 h incubation, CCK-8
[16] = read-out: IC50 (nM) for inhibiting the growth of tumor cells, NCI-N87, NCI-N87 cells, 72 h incubation, CCK-8
[17] = read-out: IC50 (nM) for inhibiting the growth of tumor cells, NCI-H1975, NCI-H1975 cells

SMILES | IC50 [1, 4] [nM] | IC50 [2, 5] [nM] | IC50 [3, 6] [nM] | IC50 (NCI-H1975; [7]) [nM] | IC50 (MDA-MB-231; [8]) [nM] | also measured
CC[C@@]1(O)C(=O)OCc2c1cc1n(c2=O)Cc2c-1nc1cc(F)c(F)cc1c2CCNC1CCC(OC)CC1 (stereo partly shown) [Compound 14, 7-(2-(4-Methoxycyclohexyl)amino)ethyl-10,11-difluorocamptothecin] | 26.1 | 36.1 | 5.3 | 383 | 460 | 
CC[C@@]1(O)C(=O)OCc2c1cc1n(c2=O)Cc2c-1nc1cc3c(cc1c2CCN[C@@H]1CCOC1)OCO3 [Compound 34, 7-(2-(N-(R)-Tetrahydrofuran-3-ylamino))ethyl-10,11-methylenedioxycamptothecin] |  |  |  |  |  | IC50 [1, 9]: 2.94 nM; IC50 [2, 10]: 0.45 nM; IC50 [3, 11]: 54.2 nM; IC50 (NCI-H1975; [12]): 14.4 nM; IC50 (MDA-MB-231; [13]): 41.8 nM
CC[C@@]1(O)C(=O)OCc2c1cc1n(c2=O)Cc2c-1nc1cc3c(cc1c2CCN[C@@H](C)CCO)OCO3 [Compound 18, 7-(2-((S)-4-Hydroxybutyl-2-yl)amino)ethyl-10,11-methylenedioxycamptothecin] |  |  |  |  |  | IC50 [1, 14]: 20.4 nM; IC50 [2, 15]: 17.1 nM; IC50 [3, 16]: 3.63 nM; IC50 (NCI-H1975; [17]): 222 nM; IC50 (MDA-MB-231; [13]): 446 nM
CC[C@@]1(O)C(=O)OCc2c1cc1n(c2=O)Cc2c-1nc1cc(F)c(C)cc1c2CCNC(C)=O [Compound 1, 7-(2-Acetylamino)ethyl-10-methyl-11-fluorocamptothecin] | 21.3 | 19.5 | 3.78 | 361 | 350 | 
CC[C@@]1(O)C(=O)OCc2c1cc1n(c2=O)Cc2c-1nc1cc3c(cc1c2CCNCC(F)F)OCO3 [Compound 24, 7-(2-(2-Difluoroethyl)amino)ethyl-10,11-methylenedioxycamptothecin] |  |  |  |  |  | IC50 [1, 9]: 0.56 nM; IC50 [2, 10]: 2.96 nM; IC50 [3, 11]: 0.24 nM; IC50 (NCI-H1975; [12]): 15.6 nM; IC50 (MDA-MB-231; [13]): 78.2 nM
CC[C@@]1(O)C(=O)OCc2c1cc1n(c2=O)Cc2c-1nc1cc3c(cc1c2CCN[C@@H](C)CN=[N+]=[N-])OCO3 [Compound 29, 7-(2-((S)-Azidoisopropyl)amino)ethyl-10,11-methylenedioxycamptothecin] |  |  |  |  |  | IC50 [1, 9]: 1.4 nM; IC50 [2, 10]: 2 nM; IC50 [3, 11]: 0.84 nM; IC50 (NCI-H1975; [12]): 5.56 nM; IC50 (MDA-MB-231; [13]): 32.7 nM
CC[C@@]1(O)C(=O)OCc2c1cc1n(c2=O)Cc2c-1nc1cc3c(cc1c2CCNCCOC)OCO3 [Compound 17, 7-(2-(2-Methoxyethyl)amino)ethyl-10,11-methylenedioxycamptothecin] |  |  |  |  |  | IC50 [1, 14]: 2.49 nM; IC50 [2, 15]: 6.53 nM; IC50 [3, 16]: 0.7 nM; IC50 (NCI-H1975; [12]): 9.09 nM; IC50 (MDA-MB-231; [13]): 103 nM
CC[C@@]1(O)C(=O)OCc2c1cc1n(c2=O)Cc2c-1nc1cc(F)c(C)cc1c2CCNC1CCC(OC)CC1 (stereo partly shown) [Compound 7, 7-(2-(4-Methoxycyclohexyl)amino)ethyl-10-methyl-11-fluorocamptothecin] | 6.46 | 22.2 | 2.02 | 92.2 | 147 | 
C[C@@]1(O)C(=O)OCc2c1cc1n(c2=O)Cc2c-1nc1cc3c(cc1c2CCNC(=O)C(F)F)OCO3 [Compound 36, 7-(2-Difluoroacetylamino)ethyl-10,11-methylenedioxycamptothecin] | 7.24 | 2.8 | 7.66 | 38.7 | 110 | 
CC[C@@]1(O)C(=O)OCc2c1cc1n(c2=O)Cc2c-1nc1cc(F)c(C)c3c1c2[C@@H](NC(=O)CO)CC3 [Dxd, reference compound] |  |  |  |  |  | IC50 ([1]; OE33 cells, 72 h incubation, CCK-8, read-out: IC50 (nM) for inhibiting the growth of tumor cells, OE33): 7.01 nM; IC50 ([2]; SK-BR-3 cells, 72 h incubation, CCK-8, read-out: IC50 (nM) for inhibiting the growth of tumor cells, SK-BR-3): 9.69 nM; IC50 ([3]; NCI-N87 cells, 72 h incubation, CCK-8, read-out: IC50 (nM) for inhibiting the growth of tumor cells, NCI-N87): 2.48 nM; IC50 (NCI-H1975; NCI-H1975 cells, read-out: IC50 (nM) for inhibiting the growth of tumor cells, NCI-H1975): 286 nM; IC50 (MDA-MB-231; MDA-MB-231 cells, read-out: IC50 (nM) for inhibiting the growth of tumor cells, MDA-MB-231): 135 nM
CC[C@@]1(O)C(=O)OCc2c1cc1n(c2=O)Cc2c-1nc1cc3c(cc1c2CCN(C(=O)CO)[C@@H](C)COC)OCO3 [Compound 30, 7-(2-(N-Hydroxyacetyl((S)-methoxyisopropyl))amino)ethyl-10,11-methylenedioxycamptothecin] | 6.47 | 6.23 | 1.56 | 15.4 | 98.5 | 
CC[C@@]1(O)C(=O)OCc2c1cc1n(c2=O)Cc2c-1nc1cc(F)c(F)cc1c2CCNC1CCOCC1 [Compound 13, 7-(2-(Tetrahydropyran-4-yl)amino)ethyl-10,11-difluorocamptothecin] | 1.96 | 5.63 | 0.93 | 9.83 | 72.7 | 
CC[C@@]1(O)C(=O)OCc2c1cc1n(c2=O)Cc2c-1nc1cc(F)c(C)cc1c2CCNCCN=[N+]=[N-] [Compound 8, 7-(2-(2-Azidoethyl)amino)ethyl-10-methyl-11-fluorocamptothecin] | 3.26 | 4.92 | 0.68 | 18.5 | 80.4 | 
CC[C@@]1(O)C(=O)OCc2c1cc1n(c2=O)Cc2c-1nc1cc(F)c(F)cc1c2CCN[C@@H](C)COC [Compound 11, 7-(2-((S)-2-Methoxyisopropyl)amino)ethyl-10,11-difluorocamptothecin] | 7.26 | 19.2 | 1.67 | 12.6 | 157 | 
CC[C@@]1(O)C(=O)OCc2c1cc1n(c2=O)Cc2c-1nc1cc3c(cc1c2CCNCCOC)OCCO3 [Compound 42, 7-(2-(2-Methoxyethyl)amino)ethyl-10,11-ethylenedioxycamptothecin] | 9.95 | 18 | 9.96 | 26.6 | 94.8 | 
CC[C@@]1(O)C(=O)OCc2c1cc1n(c2=O)Cc2c-1nc1cc3c(cc1c2CCNCCN=[N+]=[N-])OCO3 [Compound 16, 7-(2-(2-Azidoethyl)amino)ethyl-10,11-methylenedioxycamptothecin] |  |  |  |  |  | IC50 [1, 14]: 3.13 nM; IC50 [2, 15]: 8.96 nM; IC50 [3, 16]: 1.01 nM; IC50 (NCI-H1975; [17]): 9.22 nM; IC50 (MDA-MB-231; read-out: IC50 (nM) for inhibiting the growth of tumor cells, MDA-MB-231, MDA-MB-231 cells): 116 nM
CC[C@@]1(O)C(=O)OCc2c1cc1n(c2=O)Cc2c-1nc1cc3c(cc1c2CCNC1CCOCC1)OCCO3 [Compound 43, 7-(2-(Tetrahydropyran-4-yl)amino)ethyl-10,11-ethylenedioxycamptothecin] | 39.3 | 81.8 | 7.43 | 58.7 | 243 | 
